Measurements as given in patent publication US10208033B2, “β-carboline, dihydro-β-carboline and tetrahydro-β-carboline alkaloid derivatives and preparation methods same and use in aspects of preventing and treating plant viruses, fungicides and insecticides” (NANKAI UNIVERSITY, priority 2013, dated 2019).
Values after ≈ are worked out from the molar mass of the structure shown.

Key:
[1] = system: culex pipiens larvae; conditions: in vivo; cited from earlier work
[2] = system: Lipaphis erysimi; conditions: in vivo; cited from earlier work
[3] = target: monoamine oxidase (MAO-A) (Homo sapiens, UniProt P21397); conditions: cited from earlier work
[4] = system: corn borers; assay: whole plant or invertebrate; conditions: read-out: Corn borer Mortality (%)
[5] = system: tobacco mosaic virus (TMV); assay: Anti-TMV in vitro effect (half-leaf soaking); format: cell-based, tobacco mosaic virus (host Nicotiana tabacum L.cv.Xanthi NN)
[6] = system: HL60; conditions: cited from earlier work
[7] = system: tobacco mosaic virus (TMV); assay: Anti-TMV in vivo inactivation; design: species or system tobacco mosaic virus (host Nicotiana tabacum L.cv.Xanthi NN)
[8] = system: Fusarium graminearumt; assay: microbe, parasite or virus in culture; format: cell-based
[9] = system: tobacco mosaic virus (TMV); assay: Anti-TMV in vivo therapeutic effect; design: species or system tobacco mosaic virus (host Nicotiana tabacum L.cv.Xanthi NN)
[10] = system: Sclerotinia scleotiorum; assay: Fungicidal (bactericidal) activity in vitro, PDA colony diameter; format: cell-based; conditions: 50 mg/kg
[11] = system: Cercospora arachidicola; assay: as above; format: cell-based; conditions: 50 mg/kg
[12] = system: Fusarium fujikuroi; assay: as above; format: cell-based; conditions: 50 mg/kg
[13] = system: mosquito larvae; assay: whole plant or invertebrate; conditions: 24 h
In short: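 Compound dissolved in acetone (or other solvent) to a 1000 ppm stock and diluted in water to 5 ppm. Ten Culex pipiens pallens larvae at the start of the fourth instar, laboratory-reared, added per beaker; solvent-only aqueous control.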

[14] = system: Botrytis cinerea; assay: Fungicidal (bactericidal) activity in vitro, PDA colony diameter; format: cell-based; conditions: 50 mg/kg
[15] = system: Rhizoctonia solani; assay: as above; format: cell-based; conditions: 50 mg/kg
[16] = system: Alternaria solani; assay: as above; format: cell-based; conditions: 50 mg/kg
[17] = system: Phytophthora capsici; assay: as above; format: cell-based; conditions: 50 mg/kg
[18] = system: potato late blight; assay: microbe, parasite or virus in culture; format: cell-based
[19] = system: cotton bollworms; assay: whole plant or invertebrate
Description: Experimental method of cotton bollworms: feed and drug mixing method: measure 3 mL of prepared solution and add it to about 27 g of newly prepared feed, thereby obtaining needed concentration through dilution by 10 times.

[20] = system: Bipolaria maydis; assay: organism not typed; format: cell-based
[21] = system: Rhizoctonia cereali; assay: Fungicidal (bactericidal) activity in vitro, PDA colony diameter; format: cell-based; conditions: 50 mg/kg
[22] = system: Macrophoma kawatsukai; assay: as above; format: cell-based; conditions: 50 mg/kg
[23] = system: armyworms; format: in vivo; conditions: concentration 600 mg/kg
[24] = system: tobacco mosaic virus (TMV); assay: Anti-TMV in vivo protective effect; design: species or system tobacco mosaic virus (host Nicotiana tabacum L.cv.Xanthi NN)
[25] = system: cucumber fusarium wilt; assay: Fungicidal (bactericidal) activity in vitro, PDA colony diameter; format: cell-based; conditions: 50 mg/kg
[26] = system: Colletotrichum orbiculare; assay: as above; format: cell-based; conditions: 50 mg/kg
[27] = system: corn borers; conditions: concentration 600 mg/kg
[28] = system: 14 kinds of fungi; assay: Bactericidal activity, overall statements on Table 2; format: cell-based; conditions: Table 2, 50 mg/kg
Description: In vitro test method (Alternaria solani is taken for example. Alternatively, other fungi may be used): Inoculate Alternaria solani to PDA culture medium, culture it for 7 days, prepare […] bacteria plates from colony edge by a puncher, inoculate […] and drug-free PDA culture media, culture them for 4 days, measure colony diameter, compare with the control group and calculate the inhibition percentage of the drug.

Sequence of monoamine oxidase (MAO-A) (P21397 whole entry, species assumed): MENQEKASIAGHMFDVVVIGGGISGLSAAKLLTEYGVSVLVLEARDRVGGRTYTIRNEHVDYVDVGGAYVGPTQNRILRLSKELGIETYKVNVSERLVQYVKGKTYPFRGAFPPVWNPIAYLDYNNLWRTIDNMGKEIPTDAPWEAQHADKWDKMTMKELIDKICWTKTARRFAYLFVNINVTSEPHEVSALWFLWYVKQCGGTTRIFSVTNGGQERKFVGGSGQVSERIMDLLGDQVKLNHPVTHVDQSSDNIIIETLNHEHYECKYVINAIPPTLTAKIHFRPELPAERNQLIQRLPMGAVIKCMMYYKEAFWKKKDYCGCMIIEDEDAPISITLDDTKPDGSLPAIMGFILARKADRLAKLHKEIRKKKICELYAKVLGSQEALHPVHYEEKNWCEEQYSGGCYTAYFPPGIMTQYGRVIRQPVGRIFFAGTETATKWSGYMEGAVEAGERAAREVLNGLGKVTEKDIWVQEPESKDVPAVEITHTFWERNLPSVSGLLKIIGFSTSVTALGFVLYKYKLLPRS

## COC(=O)c1cc2c([nH]c3ccccc32)c(-c2ccccc2)n1
[1]
  LC50 against culex pipiens larvae: 20.82 µg/mL (≈ 68.9 µM)
[2]
  LC50 against Lipaphis erysimi: 53.16 µg/mL (≈ 176 µM)

## COC(=O)C1Cc2c([nH]c3ccccc23)C(c2ccccc2)N1 (stereo not shown)
[1]
  LC50 against culex pipiens larvae: 23.98 µg/mL (≈ 78.3 µM)
[2]
  LC50 against Lipaphis erysimi: 68.05 µg/mL (≈ 222 µM)

## COc1ccc2c3c([nH]c2c1)C(C)=NCC3 [Harmaline]
[3]
  inhibition of monoamine oxidase (MAO-A): reversible inhibitor

## COc1ccc2c(c1)[nH]c1c(C)nccc12 [Harmine]
[4]
  mortality at 600 mg/kg: 15%
[5]; Tobacco mosaic virus, treatment dose 100 μg/mL, read-out: Relative inhibition rate (%) In vitro activity
  inhibition at 100 µg/mL: 20%
[5]; Tobacco mosaic virus, treatment dose 500 μg/mL, read-out: Relative inhibition rate (%) In vitro activity
  inhibition at 500 µg/mL: 44.6%
[6]
  cytotoxicity to leukemia cell line HL60: shows cytotoxicity
[7]; Tobacco mosaic virus, treatment dose 100 μg/mL, read-out: Relative inhibition rate (%) In vivo inactivation
  inhibition at 100 µg/mL: 11.4%
[7]; Tobacco mosaic virus, treatment dose 500 μg/mL, read-out: Relative inhibition rate (%) In vivo inactivation
  inhibition at 500 µg/mL: 40.5%
[8]; Fusarium, 96 h, read-out: Bactericidal activity (%) Fusarium graminearumt
  inhibition of growth at 50 mg/kg: 92.9%
[9]; Tobacco mosaic virus, treatment dose 100 μg/mL, read-out: Relative inhibition rate (%) In vivo therapy
  inhibition at 100 µg/mL: 15.8%
[9]; Tobacco mosaic virus, treatment dose 500 μg/mL, read-out: Relative inhibition rate (%) In vivo therapy
  inhibition at 500 µg/mL: 38.6%
[10]; Sclerotinia, 96 h
  inhibition of growth at 50 mg/kg: 48%
[11]; Mycosphaerella arachidis, 96 h
  inhibition of growth at 50 mg/kg: 57.1%
[12]; Fusarium fujikuroi, 96 h
  inhibition of growth at 50 mg/kg: 57.1%
[13]; Culex pipiens, read-out: Mosquito larvae Mortality (%)
  mortality at 10 mg/kg: 45%
[14]; Botrytis cinerea, 96 h
  inhibition of growth at 50 mg/kg: 59.1%
[15]; Rhizoctonia solani, 96 h
  inhibition of growth at 50 mg/kg: 21.4%
[16]; Alternaria solani, 96 h
  inhibition of growth at 50 mg/kg: 83.3%
[17]; Phytophthora capsici, 96 h
  inhibition of growth at 50 mg/kg: 60.6%
[18]; Phytophthora infestans, 96 h, read-out: Bactericidal activity (%) potato late blight
  inhibition of growth at 50 mg/kg: 35%
[19]; Helicoverpa armigera, in Gossypium hirsutum, read-out: Cotton bollworm Mortality (%)
  mortality at 600 mg/kg: 15%
[20]; read-out: Bactericidal activity (%) Bipolaria maydis
  inhibition at 50 mg/kg: 31.6%
[21]; Rhizoctonia, 96 h
  inhibition of growth at 50 mg/kg: 71.9%
[22]
  inhibition at 50 mg/kg: 35.3%
[23]
  Armyworm Mortality (%): 20%
[24]; Tobacco mosaic virus, treatment dose 100 μg/mL, read-out: Relative inhibition rate (%) In vivo protection
  inhibition at 100 µg/mL: 16.3%
[24]; Tobacco mosaic virus, treatment dose 500 μg/mL, read-out: Relative inhibition rate (%) In vivo protection
  inhibition at 500 µg/mL: 42.4%
[25]; Fusarium, 96 h
  inhibition of growth at 50 mg/kg: 28.6%
[26]; Colletotrichum orbiculare, 96 h
  inhibition of growth at 50 mg/kg: 57.1%

## Cc1nc(C=O)cc2c1[nH]c1ccccc12 [Ia-13, 1-methyl-pyridino [3,4-b] indol-3-formaldehyde]
other
  melting point: 194 to 196 °C

## CC[C@@H]1N[C@H](C(=O)O)Cc2c1[nH]c1ccccc21 [Ib-3, (1S, 3S)-1-ethyl-2,3,4,9-tetrahydropyridino [3,4-b] indol-3-formic acid]
other
  melting point: 277 to 280 °C

## C[C@@H]1N[C@H](C(=O)NN=Cc2ccc(Cl)c(Cl)c2)Cc2c1[nH]c1ccccc21 [Ic-7, (1S, 3S)—N′-(3,4-dichlorobenzylidene)-1-methyl-2,3,4,9-tetrahydropyridino [3,4-b] indol-3-formylhydrazine]
[5]; treatment dose 100 μg/mL
  Relative inhibition rate (%) In vitro activity: 15.1%
[5]; treatment dose 500 μg/mL
  Relative inhibition rate (%) In vitro activity: 50.7%
[27]
  Corn borer Mortality (%): 5%
[7]; treatment dose 100 μg/mL
  Relative inhibition rate (%) In vivo inactivation: 20.4%
[7]; treatment dose 500 μg/mL
  Relative inhibition rate (%) In vivo inactivation: 55.2%
[8]; 50 mg/kg
  Bactericidal activity (%) Fusarium graminearumt: 76.9%
[9]; treatment dose 100 μg/mL
  Relative inhibition rate (%) In vivo therapy: 23.5%
[9]; treatment dose 500 μg/mL
  Relative inhibition rate (%) In vivo therapy: 48.9%
[10]
  Bactericidal activity (%) Sclerotinia scleotiorum: 84.6%
[11]
  Bactericidal activity (%) Cercospora arachidicola: 72.7%
[12]
  Bactericidal activity (%) Fusarium fujikuroi: 70.6%
[13]; concentration 10 mg/kg
  Mosquito larvae Mortality (%): 10%
[14]
  Bactericidal activity (%) Botrytis cinerea: 80.6%
[15]
  Bactericidal activity (%) Rhizoctonia solani: 62.5%
[16]
  Bactericidal activity (%) Alternaria solani: 71.4%
[17]
  Bactericidal activity (%) Phytophthora capsici: 84.8%
[18]
  Bactericidal activity (%) potato late blight: 65.2%
[19]; concentration 600 mg/kg
  Cotton bollworm Mortality (%): 30%
[28]
  bactericidal activity against fungi (in words): very good bactericidal activity against various kinds of fungi
[20]; 50 mg/kg
  Bactericidal activity (%) Bipolaria maydis: 80.0%
[21]
  Bactericidal activity (%) Rhizoctonia cereali: 97.3%
[22]
  Bactericidal activity (%) Macrophoma kawatsukai: 97.0%
[23]
  Armyworm Mortality (%): 5%
[24]; treatment dose 100 μg/mL
  Relative inhibition rate (%) In vivo protection: 14.8%
[24]; treatment dose 500 μg/mL
  Relative inhibition rate (%) In vivo protection: 48.1%
[25]
  Bactericidal activity (%) Cucumber fusarium wilt: 77.3%
[26]
  Bactericidal activity (%) Colletotrichum orbiculare: 80.0%
